Measured values taken from patent US20080032952A1, “Combination Therapies Employing Nicotinic Acid Derivatives or Fibric Acid Derivatives” (priority 2004, published 2008).

Tested on: patients who underwent percutaneous coronary intervention (PCI)
Format: in vivo
Description: Data collection and statistical analyses—Patients who received ≧1 dose of the study drug and underwent PCI were analyzed for all primary and secondary efficacy and safety end points. […] Statistical tests were 2-sided with an a level of 0.05 and employed the intent-to-treat principle. The Wilcoxon rank-sum test was used. Due to small sample sizes, categorical variables were compared using the Fisher's exact test with the exception of the ST-segment monitoring data, which utilized the Pearson's chi-square test. Statistical analyses were performed using SAS version 8.2 (SAS Institute, Cary, N.C.).

Cc1ncc(COP(=O)(O)O)c(C=O)c1O [P5P, pyridoxal 5′-phosphate]
median periprocedural CK-MB area under the curve (periprocedural infarct size) (10 mg/kg oral ≧4 hours before PCI, then 5 mg/kg twice daily, CK-MB over 24 hours, p=0.038 vs placebo): 18.6 ng/mL
rate of post-PCI ischemia (continuous ST monitoring within 24 hours after PCI, p=0.78 vs placebo): 14.7%
